Each structure is given as a SMILES string. The source made the active and inactive calls. The calls are words filed in the database; no cut-off is given here.

Common to all, as to format: functional
The test system of assay [1] is MSC. The assay can be described thus: Induction of adipogenesis in human bone marrow MSC assessed as adiponectin production at 30 uM after 14 days by ELISA relative to control. A general note: An ELISA detects its analyte on a solid surface through an enzyme-linked reagent.
A short description of assay [2]: Induction of adipogenesis in human bone marrow MSC assessed as formation of intracellular lipid droplets at 10 uM after 15 days by oil red O staining in IDX condition relative to control.
Assay [3] concerns MSC. The assay can be described thus: Induction of SSAO-mediated adipogenesis in human bone marrow MSC assessed as adiponectin level at 0.1 to 1 mM after 14 days by ELISA.
Assay [4] relates to MSC. Put plainly: Induction of adipogenesis in human bone marrow MSC assessed as adiponectin up-regulation by RT-PCR analysis.
Assay [5] deals with MSC. Put plainly: Induction of adipogenesis in human bone marrow MSC assessed as PPARgamma up-regulation by RT-PCR analysis.
The subject of assay [6] is MSC. The assay can be described thus: Induction of adipogenesis in human bone marrow MSC assessed as AOC3 up-regulation by RT-PCR analysis.
The test system of assay [7] is MSC. The assay can be described thus: Induction of adipogenesis in human bone marrow MSC assessed as MAO-B up-regulation by RT-PCR analysis.
In assay [8] the test system is MSC. Put plainly: Induction of adipogenesis in human bone marrow MSC assessed as AOC2 up-regulation by RT-PCR analysis.
The test system of assay [9] is MSC. Put plainly: Induction of adipogenesis in human bone marrow MSC assessed as MAO-A up-regulation by RT-PCR analysis.
Assay [10] has as its system MSC. Put plainly: Induction of adipogenesis in human bone marrow MSC assessed as adiponectin production after 14 days by ELISA in IDX condition.

Take `NCCNC(=O)c1ncsc1-c1cccc(F)c1`: in assay [1], the result was Active. In addition, the Activity in [2] is 49%.
Regarding `NNC(N)=O`, in assay [3], the outcome was inactive.
With `N[C@@H]1C[C@H]1c1ccccc1.N[C@H]1C[C@@H]1c1ccccc1` (racemic) [TRANYLCYPROMINE], the Activity in assay [2] was 79%.
With `COc1ccc(Cl)cc1C(=O)NCCc1ccc(S(=O)(=O)NC(=O)NC2CCCCC2)cc1` [GLYBURIDE], the result in assay [4], in assay [5], in assay [6], in assay [7], in [8] and in assay [9] was Active. Moreover, the Activity in assay [2] is listed as 134%.
For `O=C(NCCN1CCOCC1)c1ccc(Cl)cc1` [MOCLOBEMIDE], the Activity entry in assay [10] was “Dose-dependent effect”; in assay [2] it was 146%.
In the case of `C#CCN(C)Cc1ccccc1` [PARGYLINE], the outcome in assay [1] was Active. Moreover, the Activity in assay [2] is given as 54%.
Turning to `NNCCc1ccccc1` [PHENELZINE], the Activity in [2] worked out at 85%.
With `C#CCN(C)[C@H](C)Cc1ccccc1` [SELEGILINE], the Activity entry was “Dose-dependent effect” in assay [10] and 105% in [2].

The values are drawn from ChEMBL document CHEMBL2384978, “The opposite effect of isotype-selective monoamine oxidase inhibitors on adipogenesis in human bone marrow mesenchymal stem cells” (2013).
